Each compound was assayed on P. falciparum (NF54 or 3D7 strain) (assay: Assay for P. falciparum proliferation in infected human blood cells (SYBR Green)). Settings: Plasmodium falciparum, Erythrocyte, 72 h, NF54 or 3D7 infected human erythrocytes, 72 hours; read-out: EC50 (nM), inhibitory efficacy in delaying P. falciparum proliferation in infected human blood cells.
Type: cell-based, Plasmodium falciparum
How it was run: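 Infected erythrocytes (NF54 or 3D7; final 2.5% hematocrit, 0.3% parasitemia) were incubated with compounds for 72 h at 37 °C in low oxygen (3% O2, 4% CO2, 93% N2).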

First: Cc1cccc(-c2cnc3cnc(C(=O)N(C)c4ccc(C#N)cc4)cn23)c1 [Compound 199, N-(4-cyanophenyl)-N-methyl-3-(3-methylphenyl)imidazo[1,2-a]pyrazine-6-carboxamide]
Second: Cc1ccc(-c2cnc3cnc(C(=O)N(C)c4ccc(C#N)cc4)cn23)cn1 [Compound 297, N-(4-cyanophenyl)-N-methyl-3-(6-methylpyridin-3-yl)imidazo[1,2-a]pyrazine-6-carboxamide]
The EC50 of the first is 5.7-fold higher: 7320 nM for the first, 1290 nM for the second. The second is the more potent here.

Going from `CN(C(=O)c1cn2c(-c3ccc(-c4ccn[nH]4)cc3)cnc2cn1)c1ccc(F)c(F)c1` [Compound 258, N-(3,4-difluorophenyl)-N-methyl-3-[4-(1H-pyrazol-5-yl)phenyl]imidazo[1,2-a]pyrazine-6-carboxamide] to `CN(C(=O)c1cn2c(-c3ccc(Cl)cc3)cnc2cn1)c1ccc(Cl)nc1` [Compound 81, -(4-chlorophenyl)-N-(6-chloropyridin-3-yl)-N-methylimidazo[1,2-a]pyrazine-6-carboxamide], the EC50 rises from 76 nM to 382 nM (5-fold). The first is the more potent here.

Compared with `CN(C(=O)c1cn2c(-c3ccc4c(cnn4C)c3)cnc2cn1)c1ccc(Cl)cc1` [Compound 480, N-(4-chlorophenyl)-N-methyl-3-(1-methyl-1H-indazol-5-yl)imidazo[1,2-a]pyrazine-6-carboxamide], `CN(C(=O)c1cn2c(-c3ccc(Cl)cc3)cnc2cn1)c1ccc(S(C)(=O)=O)cc1` [Compound 17, 3-(4-chlorophenyl)-N-(4-methanesulfonylphenyl)-N-methylimidazo[1,2-a]pyrazine-6-carboxamide] is 24-fold higher in EC50: 25 nM for the first, 602 nM for the second.

First: COc1ccc(-c2cnc3cnc(C(=O)N(C)c4ccc(C#N)cc4)cn23)cn1 [Compound 90, N-(4-cyanophenyl)-3-(6-methoxypyridin-3-yl)-N-methylimidazo[1,2-a]pyrazine-6-carboxamide]
Second: CC(C)Oc1ccc(-c2cnc3cnc(C(=O)N(C)c4ccc(C#N)cc4)cn23)cc1 [Compound 162, N-(4-cyanophenyl)-N-methyl-3-[4-(propan-2-yloxy)phenyl]imidazo[1,2-a]pyrazine-6-carboxamide]
The EC50 of the first is 2.6-fold higher: 826 nM for the first, 318 nM for the second. The second is the more potent here.

Going from `CN(C(=O)c1cn2c(-c3ccc(NC(=O)C4(CN)CC4)cc3)cnc2cn1)c1ccc(C#N)cc1` [Compound 307, 3-(4-{[1-(aminomethyl)cyclopropane]amido}phenyl)-N-(4-cyanophenyl)-N-methylimidazo[1,2-a]pyrazine-6-carboxamide] to `CN(C(=O)c1cn2c(-c3ccc(NC(=O)C(N)C4CC4)cc3)cnc2cn1)c1ccc(C#N)cc1` (stereo in doubt) [Compound 292, 3-{4-[(2S)-2-amino-2-cyclopropylacetamido]phenyl}-N-(4-cyanophenyl)-N-methylimidazo[1,2-a]pyrazine-6-carboxamide], the EC50 falls from 1070 nM to 304 nM (3.5-fold). The second is the more potent here.

`CN(C(=O)c1ccc(Cl)nc1)c1cn2c(-c3ccc(C(F)(F)F)cc3)cnc2cn1` [Compound 267, 6-chloro-N-methyl-N-{3-[4-(trifluoromethyl)phenyl]imidazo[1,2-a]pyrazin-6-yl}pyridine-3-carboxamide] and `CN(C(=O)c1cn2c(-c3ccc(C(F)(F)F)cc3)cnc2cn1)c1ccc(F)cn1` [Compound 63, N-(5-fluoropyridin-2-yl)-N-methyl-3-[4-(trifluoromethyl)phenyl]imidazo[1,2-a]pyrazine-6-carboxamide] are within 1.5-fold of each other in EC50: 424 nM for the first, 387 nM for the second.

Going from `CN(C(=O)c1cn2c(-c3ccc(C(F)(F)F)cc3)cnc2cn1)c1ccc(C(F)(F)F)cc1` [Compound 500, N-methyl-N,3-bis[4-(trifluoromethyl)phenyl]imidazo[1,2-a]pyrazine-6-carboxamide] to `CN(C(=O)c1cn2c(-c3ccc(C(F)(F)F)cc3)cnc2cn1)c1ccc(C#N)nc1` [Compound 147, N-(6-cyanopyridin-3-yl)-N-methyl-3-[4-(trifluoromethyl)phenyl]imidazo[1,2-a]pyrazine-6-carboxamide], the EC50 rises from 353 nM to 564 nM (1.6-fold). The first is the more potent here.

Going from `CN(C)C(=O)c1ccc(-c2cnc3cnc(C(=O)N(C)c4ccc(C#N)cc4)cn23)cc1` [Compound 427, N-(4-cyanophenyl)-3-[4-(dimethylcarbamoyl)phenyl]-N-methylimidazo[1,2-a]pyrazine-6-carboxamide] to `CC(C)OC(=O)Nc1ccc(-c2cnc3cnc(C(=O)N(C)c4ccc(C#N)cc4)cn23)cc1` [Compound 261, Propan-2-yl N-(4-{6-[(4-cyanophenyl)(methyl)carbamoyl]imidazo[1,2-a]pyrazin-3-yl}phenyl)carbamate], the EC50 falls from over 9800 nM to 408 nM.

First: COc1ccc(-c2cnc3cnc(C(=O)N(C)c4ccc(Cl)cc4Cl)cn23)cc1 [Compound 41, N-(2,4-dichlorophenyl)-3-(4-methoxyphenyl)-N-methylimidazo[1,2-a]pyrazine-6-carboxamide]
Second: Cc1ccc(-c2cnc3cnc(C(=O)N(C)c4ccc(Cl)nc4)cn23)cc1 [Compound 80, -(6-chloropyridin-3-yl)-N-methyl-3-(4-methylphenyl)imidazo[1,2-a]pyrazine-6-carboxamide]
The EC50 of the first is 2.7-fold lower: 97 nM for the first, 258 nM for the second. The first is the more potent here.

Going from `NC(=O)C1CCCN(C(=O)c2cn3c(-c4ccc(C(F)(F)F)cc4)cnc3cn2)C1` (stereo not drawn) [Compound 397, 1-({3-[4-(trifluoromethyl)phenyl]imidazo[1,2-a]pyrazin-6-yl}carbonyl)piperidine-3-carboxamide] to `CN(C(=O)N1CCC(F)CC1)c1cn2c(-c3ccc(C(F)(F)F)cc3)cnc2cn1` [Compound 322, 4-fluoro-N-methyl-N-{3-[4-(trifluoromethyl)phenyl]imidazo[1,2-a]pyrazin-6-yl}piperidine-1-carboxamide], the EC50 falls from 6550 nM to 2710 nM (2.4-fold). The second is the more potent here.

Going from `O=C(c1cn2c(-c3ccc(C(F)(F)F)cc3)cnc2cn1)N1CCOc2cc(F)ccc21` [Compound 305, 7-fluoro-4-({3-[4-(trifluoromethyl)phenyl]imidazo[1,2-a]pyrazin-6-yl}carbonyl)-3,4-dihydro-2H-1,4-benzoxazine] to `O=C1CN(C(=O)c2cn3c(-c4ccc(C(F)(F)F)cc4)cnc3cn2)c2ccccc2N1` [Compound 497, 4-({3-[4-(trifluoromethyl)phenyl]imidazo[1,2-a]pyrazin-6-yl}carbonyl)-1,2,3,4-tetrahydroquinoxalin-2-one], the EC50 rises from 457 nM to over 9320 nM. The first is the more potent here.

Going from `CN(C(=O)c1cn2c(-c3ccc(C(N)=O)cc3)cnc2cn1)c1ccc(S(C)(=O)=O)cc1` [Compound 172, 3-(4-carbamoylphenyl)-N-(4-methanesulfonylphenyl)-N-methylimidazo[1,2-a]pyrazine-6-carboxamide] to `CC(C)[C@@H](N)CC(=O)Nc1ccc(-c2cnc3cnc(C(=O)N(C)c4ccc(C#N)cc4)cn23)cc1` [Compound 256, 3-{4-[(3S)-3-amino-4-methylpentanamido]phenyl}-N-(4-cyanophenyl)-N-methylimidazo[1,2-a]pyrazine-6-carboxamide], the EC50 falls from 1130 nM to 240 nM (4.7-fold).

Compared with `Cc1n[nH]c2ccc(-c3cnc4cnc(C(=O)N(C)c5ccc(C#N)cc5)cn34)cc12` [Compound 424], `CN(C(=O)c1cn2c(-c3ccc(C(F)(F)F)c(F)c3)cnc2cn1)c1ccc(C#N)cc1` [Compound 169, N-(4-cyanophenyl)-3-[3-fluoro-4-(trifluoromethyl)phenyl]-N-methylimidazo[1,2-a]pyrazine-6-carbox] is 1.7-fold higher in EC50: 291 nM for the first, 497 nM for the second. The first is the more potent here.

Going from `CCc1ccc(N(C)C(=O)c2cn3c(-c4ccc(C(F)(F)F)cc4)cnc3cn2)nc1` [Compound 39, N-(5-ethylpyridin-2-yl)-N-methyl-3-[4-(trifluoromethyl)phenyl]imidazo[1,2-a]pyrazine-6-carboxamide] to `CN(C)c1ccc(N(C)C(=O)c2cn3c(-c4ccc(C(F)(F)F)cc4)cnc3cn2)cn1` [Compound 394, N-[6-(dimethylamino)pyridin-3-yl]-N-methyl-3-[4-(trifluoromethyl)phenyl]imidazo[1,2-a]pyrazine-6-carboxamide], the EC50 rises from 1080 nM to 4910 nM (4.5-fold).

Going from `Cc1cc(C(F)(F)F)ccc1-c1cnc2cnc(C(=O)N(C)c3ccc(C#N)cc3)cn12` [Compound 150, N-(4-cyanophenyl)-N-methyl-3-[2-methyl-4-(trifluoromethyl)phenyl]imidazo[1,2-a]pyrazine-6-carboxamide] to `Cc1cncc(N(C)C(=O)c2cn3c(-c4ccc(C(F)(F)F)cc4)cnc3cn2)c1` [Compound 251, N-methyl-N-(5-methylpyridin-3-yl)-3-[4-(trifluoromethyl)phenyl]imidazo[1,2-a]pyrazine-6-carboxamide], the EC50 rises from 3590 nM to 5520 nM (1.5-fold). The first is the more potent here.

`CC(c1ccc(Cl)cc1)N(C)C(=O)c1cn2c(-c3ccc(C(F)(F)F)cc3)cnc2cn1` (stereo not drawn) [Compound 405, N-[1-(4-chlorophenyl)ethyl]-N-methyl-3-[4-(trifluoromethyl)phenyl]imidazo[1,2-a]pyrazine-6-carboxamide] and `Cc1ncccc1N(C)C(=O)c1cn2c(-c3ccc(C(F)(F)F)cc3)cnc2cn1` [Compound 420, N-methyl-N-(2-methylpyridin-3-yl)-3-[4-(trifluoromethyl)phenyl]imidazo[1,2-a]pyrazine-6-carboxamide] cannot be ordered by EC50: over 8820 nM for the first, over 10000 nM for the second.

Compared with `COc1ncc(C)cc1N(C)C(=O)c1cn2c(-c3ccc(C(F)(F)F)cc3)cnc2cn1` [Compound 250, N-(2-methoxy-5-methylpyridin-3-yl)-N-methyl-3-[4-(trifluoromethyl)phenyl]imidazo[1,2-a]pyrazine-6-carboxamide], `CC(=O)c1cnc2cnc(C(=O)N(C)c3ccc(Cl)nc3)cn12` [Compound 33, 3-acetyl-N-(6-chloropyridin-3-yl)-N-methylimidazo[1,2-a]pyrazine-6-carboxamide] is 16-fold higher in EC50: 302 nM for the first, 4710 nM for the second. The first is the more potent here.

First: CN(Cc1cn2c(-c3ccc(Cl)cc3)cnc2cn1)c1ccc(Cl)cc1 [Compound 44, 4-chloro-N-{[3-(4-chlorophenyl)imidazo[1,2-a]pyrazin-6-yl]methyl}-N-methylaniline]
Second: CN(Cc1cn2c(-c3ccc4c(cnn4C)c3)cnc2cn1)c1ccc(C#N)cc1 [Compound 62, 4-[methyl({[3-(1-methyl-1H-indazol-5-yl)imidazo[1,2-a]pyrazin-6-yl]methyl})amino]benzonitrile]
The EC50 of the first is 2.5-fold higher: 206 nM for the first, 82 nM for the second. The second is the more potent here.
